In patent US12466822B2, “Heterocyclic compounds as immunomodulators” (Incyte Corporation, priority 2016, dated 2025):

target: T1, PD-1/PD-L1 protein/protein interaction (recombinant human PD-L1 protein (19-238), recombinant human PD-1 protein (25-167)) (Homo sapiens, UniProt Q9NZQ7); test: PD-1/PD-L1 Homogeneous Time-Resolved Fluorescence (HTRF) Binding Assay; conditions: 25° C., PBS buffer (pH 7.4), 40 minutes preincubation with inhibitors
T1 construct: Recombinant human PD-L1 protein (19-238) with a His-tag at the C-terminus; purchased AcroBiosystems PD1-H5229 (PD-L1-His); PD1-H5257 (PD-1-Fc)
Method: The assays were conducted in a standard black 384-well polystyrene plate with a final volume of 20 μL. Inhibitors were first serially diluted in DMSO and then added to the plate wells before the addition of other reaction components. The final concentration of DMSO in the assay was 1%. The assays were carried out at 25° C. in the PBS buffer (pH 7.4) with 0.05% Tween-20 and 0.1% BSA. Recombinant human PD-L1 protein (19-238) with a His-tag at the C-terminus was purchased from AcroBiosystems (PD1-H5229). Recombinant human PD-1 protein (25-167) with Fc tag at the C-terminus was also purchased from AcroBiosystems (PD1-H5257). PD-L1 and PD-1 proteins were diluted in the assay buffer and 10 μL was added to the plate well. Plates were centrifuged and proteins were preincubated with inhibitors for 40 minutes. The incubation was followed by the addition of 10 μL of HTRF detection buffer supplemented with Europium cryptate-labeled anti-human IgG (PerkinElmer-AD0212) specific for Fc and anti-His antibody conjugated to SureLight®-Allophycocyanin (APC, PerkinElmer-AD0059H). After centrifugation, the plate was incubated at 25° C. for 60 min. before reading on a PHERAstar FS plate reader (665 nm/620 nm ratio). Final concentrations in the assay were […], 10 nM PD-L1, 1 nM europium anti-human IgG and 20 nM anti-His-Allophycocyanin. IC50 determination was performed by fitting the curve of percent control activity versus the log of the inhibitor concentration using the GraphPad Prism 5.0 software.

T1 sequence (Q9NZQ7 19-238): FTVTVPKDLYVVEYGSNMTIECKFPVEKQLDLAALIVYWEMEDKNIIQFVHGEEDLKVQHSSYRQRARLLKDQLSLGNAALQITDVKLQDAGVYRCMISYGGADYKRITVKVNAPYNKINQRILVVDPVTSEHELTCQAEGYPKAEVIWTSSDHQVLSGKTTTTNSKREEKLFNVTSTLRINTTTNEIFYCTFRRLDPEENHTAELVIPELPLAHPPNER

IC50, ≤ 10 nM:
Cc1c(-c2nc3c(s2)CN(C(=O)CN(C)C)C3)cccc1-c1cccc(Nc2nccc3cc(CN4CC5CC4CC5C(=O)O)cnc23)c1Cl (centres unmarked) [Example 92, 2-((8-((2-chloro-3′-(5-(dimethylglycyl)-5,6-dihydro-4H-pyrrolo[3,4-d]thiazol-2-yl)-2′-methyl-[1,1′-biphenyl]-3-yl)amino)-1,7-naphthyridin-3-yl)methyl)-2-azabicyclo[2.2.1]heptane-5-carboxylic acid]
Cc1c(Nc2nccc3cc(CN4CC[C@H](O)C4)cnc23)cccc1-c1cccc(Nc2nccc3cc(CN4CC[C@@H](C(=O)O)C4)cnc23)c1C [Example 12, (R)-1-((8-((3′-((3-(((S)-3-hydroxypyrrolidin-1-yl)methyl)-1,7-naphthyridin-8-yl)amino)-2,2′-dimethyl-[1,1′-biphenyl]-3-yl)amino)-1,7-naphthyridin-3-yl)methyl)pyrrolidine-3-carboxylic acid]
Cc1c(Nc2nccc3cc(CN[C@@H](C)CO)cnc23)cccc1-c1cccc(NC(=O)c2nc3c(n2C)CCN(CC[C@H]2CC[C@H](C(=O)O)CC2)C3)c1Cl [Example 60, trans 4-(2-(2-(2-chloro-3′-(3-(((S)-1-hydroxypropan-2-ylamino)methyl)-1,7-naphthyridin-8-ylamino)-2′-methylbiphenyl-3-ylcarbamoyl)-1-methyl-6,7-dihydro-1H-imidazo[4,5-c]pyridin-5(4H)-yl)ethyl)cyclohexanecarboxylic acid]
Cc1c(Nc2nccc3cc(CN4CC[C@@H](O)C4)cnc23)cccc1-c1cccc(-c2nc3c(s2)CNCC3)c1C [Example 35, (R)-1-((8-((2,2′-dimethyl-3′-(4,5,6,7-tetrahydrothiazolo[5,4-c]pyridin-2-yl)-[1,1′-biphenyl]-3-yl)amino)-1,7-naphthyridin-3-yl)methyl)pyrrolidin-3-ol]
Cc1c(NC(=O)c2nc3c(n2C)CCN(C)C3)cccc1-c1cccc(Nc2nccc3cc(CN4CC(C(=O)O)C4)cnc23)c1Cl [Example 14, 1-((8-(2-chloro-3′-(1,5-dimethyl-4,5,6,7-tetrahydro-1H-imidazo[4,5-c]pyridine-2-carboxamido)-2′-methylbiphenyl-3-ylamino)-1,7-naphthyridin-3-yl)methyl)azetidine-3-carboxylic acid]
Cc1c(Nc2nccc3cc(CN4CC[C@@H](O)C4)cnc23)cccc1-c1cccc(NC(=O)c2cc(CN3CC[C@@H](C(=O)O)C3)cn(C)c2=O)c1Cl [Example 15, (R)-1-((5-(2-chloro-3′-(3-(((R)-3-hydroxypyrrolidin-1-yl)methyl)-1,7-naphthyridin-8-ylamino)-2′-methylbiphenyl-3-ylcarbamoyl)-1-methyl-6-oxo-1,6-dihydropyridin-3-yl)methyl)pyrrolidine-3-carboxylicacid]
O=C(O)[C@H]1CCN(Cc2cnc3c(Nc4cccc(-c5cccc(Nc6nccc7cc(CN8CC[C@H](O)C8)cnc67)c5Cl)c4Cl)nccc3c2)C1 [Example 83, (S)-1-((8-((2,2′-dichloro-3′-((3-(((S)-3-hydroxypyrrolidin-1-yl)methyl)-1,7-naphthyridin-8-yl)amino)-[1,1′-biphenyl]-3-yl)amino)-1,7-naphthyridin-3-yl)methyl)pyrrolidine-3-carboxylic acid]
Cc1c(-c2nc3c(s2)CN(C(=O)CN(C)CCO)C3)cccc1-c1cccc(Nc2nccc3cc(CN4CC[C@@H](C(=O)O)C4)cnc23)c1Cl [Example 96, (R)-1-((8-((2-chloro-3′-(5-(N-(2-hydroxyethyl)-N-methylglycyl)-5,6-dihydro-4H-pyrrolo[3,4-d]thiazol-2-yl)-2′-methyl-[1,1′-biphenyl]-3-yl)amino)-1,7-naphthyridin-3-yl)methyl)pyrrolidine-3-carboxylic acid]
Cc1c(Nc2nccc3cc(CN4CC(C(=O)O)C4)cnc23)cccc1-c1cccc(NC(=O)c2ccc(CN3CC[C@@H](O)C3)cn2)c1Cl [Example 8, (R)-1-((8-((2′-chloro-3′-(5-((3-hydroxypyrrolidin-1-yl)methyl)picolinamido)-2-methyl-[1,1′-biphenyl]-3-yl)amino)-1,7-naphthyridin-3-yl)methyl)azetidine-3-carboxylic acid]
Cc1c(Nc2nccc3cc(CN4CC(C(=O)O)C4)cnc23)cccc1-c1cccc(-c2nc3c(s2)CN(C(=O)CN(C)C)C3)c1C [Example 88, 1-((8-((3′-(5-(dimethylglycyl)-5,6-dihydro-4H-pyrrolo[3,4-d]thiazol-2-yl)-2,2′-dimethyl-[1,1′-biphenyl]-3-yl)amino)-1,7-naphthyridin-3-yl)methyl)azetidine-3-carboxylic acid]
OCCNCc1cnc2c(Nc3cccc(-c4cccc(Nc5nccc6cc(CN7CC[C@@H](O)C7)cnc56)c4Cl)c3Cl)nccn12 [Example 72, (R)-1-((8-(2,2′-dichloro-3′-(3-((2-hydroxyethylamino)methyl)imidazo[1,2-a]pyrazin-8-ylamino)biphenyl-3-ylamino)-1,7-naphthyridin-3-yl)methyl)pyrrolidin-3-ol]
CCN(C)CC(=O)N1Cc2nc(-c3cccc(-c4cccc(Nc5nccc6cc(CN7CC8CC7CC8C(=O)O)cnc56)c4Cl)c3C)sc2C1 (centres unmarked) [Example 94, 2-((8-(2-chloro-3′-(5-(2-(ethyl(methyl)amino)acetyl)-5,6-dihydro-4H-pyrrolo[3,4-d]thiazol-2-yl)-2′-methylbiphenyl-3-ylamino)-1,7-naphthyridin-3-yl)methyl)-2-azabicyclo[2.2.1]heptane-5-carboxylic acid]
Cc1c(Nc2nccc3cc(CN4CC[C@H](O)C4)cnc23)cccc1-c1cccc(NC(=O)c2nc3c(n2C)CCN(C[C@H]2CC[C@@H](C(=O)O)CC2)C3)c1Cl [Example 55, cis 4-((2-(2-chloro-3′-(3-(((S)-3-hydroxypyrrolidin-1-yl)methyl)-1,7-naphthyridin-8-ylamino)-2′-methylbiphenyl-3-ylcarbamoyl)-1-methyl-6,7-dihydro-1H-imidazo[4,5-c]pyridin-5(4H)-yl)methyl)cyclohexanecarboxylic acid]
Cc1c(NC(=O)c2nc3c(n2C)CCN(C2CCC(C(=O)O)CC2)C3)cccc1-c1cccc(Nc2nccc3cc(CN4CC[C@@H](O)C4)cnc23)c1C (single isomer, unassigned) [Example 64-peak2]
O[C@@H]1CCN(Cc2cnc3c(Nc4cccc(-c5cccc(Nc6nccc7cc(CN8CC[C@@H](O)C8)cnc67)c5Cl)c4Cl)nccc3c2)C1 [Example 22, (3R,3′R)-1,1′-((((2,2′-dichloro-[1,1′-biphenyl]-3,3′-diyl)bis(azanediyl))bis(1,7-naphthyridine-8,3-diyl))bis(methylene))bis(pyrrolidin-3-ol)]
Cc1c(Nc2nccc3cc(CN4CC[C@@H](O)C4)cnc23)cccc1-c1cccc(Nc2nccc3cc(CN4CC[C@H](C(=O)O)C4)cnc23)c1C [Example 10, (S)-1-((8-((3′-((3-(((R)-3-hydroxypyrrolidin-1-yl)methyl)-1,7-naphthyridin-8-yl)amino)-2,2′-dimethyl-[1,1′-biphenyl]-3-yl)amino)-1,7-naphthyridin-3-yl)methyl)pyrrolidine-3-carboxylic acid]
Cc1c(Nc2ncnc3cc(CN4CC[C@@H](O)C4)cnc23)cccc1-c1cccc(NC(=O)c2nc3c(n2C)CCN(C2CCC(C)(C(=O)O)CC2)C3)c1Cl (single isomer, unassigned) [Example 68-peak1]
Cc1c(Nc2nccc3cc(CN4CC[C@@H](O)C4)cnc23)cccc1-c1cccc(NC(=O)c2nc3c(n2C)CCN(C[C@H]2CC[C@H](C(=O)O)CC2)C3)c1Cl [Example 47, trans-4-((2-(2-chloro-3′-(3-(((R)-3-hydroxypyrrolidin-1-yl)methyl)-1,7-naphthyridin-8-ylamino)-2′-methylbiphenyl-3-ylcarbamoyl)-1-methyl-6,7-dihydro-1H-imidazo[4,5-c]pyridin-5(4H)-yl)methyl)cyclohexanecarboxylic acid]
Cc1c(COc2cc(OCc3cncc(C#N)c3)c(CN3CC[C@@H](C(=O)O)C3)cc2Cl)cccc1-c1cccc(Nc2nccc3cc(CN4CC[C@@H](O)C4)cnc23)c1C [Example 44, (R)-1-(5-chloro-2-((5-cyanopyridin-3-yl)methoxy)-4-((3′-((3-(((R)-3-hydroxypyrrolidin-1-yl)methyl)-1,7-naphthyridin-8-yl)amino)-2,2′-dimethyl-[1,1′-biphenyl]-3-yl)methoxy)benzyl)pyrrolidine-3-carboxylic acid]
Cc1c(COc2cc(OCc3cncc(C#N)c3)c(CN3CCCC[C@H]3C(=O)O)cc2Cl)cccc1-c1cccc(Nc2nccc3cc(CN4CC[C@@H](O)C4)cnc23)c1C [Example 43, (S)-1-(5-chloro-2-((5-cyanopyridin-3-yl)methoxy)-4-((3′-((3-(((R)-3-hydroxypyrrolidin-1-yl)methyl)-1,7-naphthyridin-8-yl)amino)-2,2′-dimethyl-[1,1′-biphenyl]-3-yl)methoxy)benzyl)piperidine-2-carboxylic acid]
